Experimental data from patent US20260232006A1, “EMULSIONS FOR NICOTINE ENCAPSULATION” (NICOVENTURES TRADING LIMITED, priority 2023, published 2026).

Key:
[1] = cited from earlier work
[2] = in mixture of mono- and diglycerides of capric and caprylic acid (Capmul MCM); 48 h at 30° C.
Protocol: Samples were blanketed with nitrogen, sonicated for 30 min, then placed in a thermostatic orbital shaker and continuously shaken at 300 rpm for 48 h at 30° C.

Row | SMILES | solubility in water [1] | solubility in fats and alcohols [1] | chemical stability ([1]; isolated, isomerizes to trans-bixin) | highest nicotine benzoate solubility in oil without sedimentation [2]
1 | CC(/C=C/C=C(C)/C=C/C(=O)O)=C\C=C\C=C(C)\C=C\C=C(C)\C=C\C(=O)O (stereo in doubt) [norbixin, (2E,4E,6E,8E,10E,12E,14E,16E,18E)-4,8,13,17-tetramethylicosa-2,4,6,8,10,12,14,16,18-nonaenedioic acid] | water-soluble | – | – | –
2 | COC(=O)/C=C/C(C)=C\C=C\C(C)=C\C=C\C=C(C)\C=C\C=C(C)\C=C\C(=O)O [bixin, (2E,4E,6E,8E,10E,12E,14E,16Z,18E)-20-methoxy-4,8,13,17-tetramethyl-20-oxoicosa-2,4,6,8,10,12,14,16,18-nonaenoic acid] | insoluble | soluble | chemically unstable when isolated | –
3 | CN1CCCC1c1cccnc1.O=C(O)c1ccccc1 (centres unmarked) [nicotine benzoate] | – | – | – | 30 % by weight
